Measured values taken from publication PMC8723806 (Journal of the Iranian Chemical Society, 2022).

How the values were obtained:
[1] = target: T1, COX-2 (Ovis aries, UniProt P79208); assay: In vitro COX-2 inhibition, colorimetric enzyme immune assay; format: biochemical, ovine; details: for COX-2 SI (COX-1 IC50/COX-2 IC50): in vitro COX-2 selectivity index; for COX-2 inhibition, in words: compared with celecoxib
T1 sequence (P79208 17-603): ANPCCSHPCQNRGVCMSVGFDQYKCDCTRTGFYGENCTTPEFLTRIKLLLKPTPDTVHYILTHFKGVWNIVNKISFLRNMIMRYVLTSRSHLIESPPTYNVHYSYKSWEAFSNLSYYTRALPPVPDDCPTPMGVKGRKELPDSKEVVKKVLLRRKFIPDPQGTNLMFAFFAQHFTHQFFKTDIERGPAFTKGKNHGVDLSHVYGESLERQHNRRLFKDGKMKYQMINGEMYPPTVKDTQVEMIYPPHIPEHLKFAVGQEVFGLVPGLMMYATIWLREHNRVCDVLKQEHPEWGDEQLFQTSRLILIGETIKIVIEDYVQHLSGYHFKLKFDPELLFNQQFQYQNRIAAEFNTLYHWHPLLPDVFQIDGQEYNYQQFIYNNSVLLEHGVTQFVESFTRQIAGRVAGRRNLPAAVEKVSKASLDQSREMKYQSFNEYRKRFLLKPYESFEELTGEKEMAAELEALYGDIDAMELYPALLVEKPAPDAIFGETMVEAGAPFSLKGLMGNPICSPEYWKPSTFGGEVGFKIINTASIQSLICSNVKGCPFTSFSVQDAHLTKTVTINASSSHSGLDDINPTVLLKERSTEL

[2] = target: T2, COX-1 (Ovis aries, UniProt P05979); assay: In vitro COX-1 inhibition, colorimetric enzyme immune assay; format: biochemical, ovine
T2 sequence (P05979 25-600): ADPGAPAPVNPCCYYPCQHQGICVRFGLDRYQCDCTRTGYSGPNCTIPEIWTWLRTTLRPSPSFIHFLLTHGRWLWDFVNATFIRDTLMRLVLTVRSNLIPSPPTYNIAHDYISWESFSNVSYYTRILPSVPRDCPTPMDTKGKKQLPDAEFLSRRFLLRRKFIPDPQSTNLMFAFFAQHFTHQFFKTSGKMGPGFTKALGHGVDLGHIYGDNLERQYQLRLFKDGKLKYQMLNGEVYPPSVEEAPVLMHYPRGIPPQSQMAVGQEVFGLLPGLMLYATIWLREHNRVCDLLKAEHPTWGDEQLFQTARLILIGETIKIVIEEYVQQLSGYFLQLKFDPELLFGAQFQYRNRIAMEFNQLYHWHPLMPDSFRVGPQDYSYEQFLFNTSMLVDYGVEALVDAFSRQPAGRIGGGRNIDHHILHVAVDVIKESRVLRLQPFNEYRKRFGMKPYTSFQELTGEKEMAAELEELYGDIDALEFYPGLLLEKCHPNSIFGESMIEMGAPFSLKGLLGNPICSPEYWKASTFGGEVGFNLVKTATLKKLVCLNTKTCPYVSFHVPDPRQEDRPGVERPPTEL

SMILES	COX-2 SI (COX-1 IC50/COX-2 IC50) [1]	COX-2 inhibition, in words [1]	IC50 [2]
O=[N+]([O-])c1ccc(-c2ccccc2F)cc1 [Compound 3a, 2-Fluoro-4'-nitrobiphenyl]	84.16		
COc1ccc(F)c(-c2ccccc2OC)c1 [Compound 3j, 2-Fluoro-2',5-dimethoxybiphenyl]		less potency	
O=[N+]([O-])c1cccc(-c2ccccc2F)c1F [Compound 3d, 2,2'-Difluoro-3-nitrobiphenyl]	68.06		
COc1ccccc1-c1ccc(F)c(OC(F)(F)F)c1 [Compound 3h, 4'-Fluoro-2-methoxy-3'-(trifluoromethoxy)biphenyl]	67.31		
Fc1ccccc1-c1ccc(F)c(C(F)(F)F)c1 [Compound 3b, 2,4'-Difluoro-3'-(trifluoromethyl) biphenyl]	101.99		11.2 µM
COc1ccccc1-c1cccc([N+](=O)[O-])c1F [Compound 3i, 2-Fluoro-2'-methoxy-3-nitrobiphenyl]	54.94	less potency	
COc1ccccc1-c1ccc(F)c(C(F)(F)F)c1 [Compound 3g, 4'-Fluoro-2-methoxy-3'-(trifluoromethyl)biphenyl]	76.84		
Fc1ccc(-c2ccccc2F)cc1OC(F)(F)F [Compound 3c, 2,4'-Difluoro-3'-(trifluoromethoxy)biphenyl]	109.9		
COc1ccccc1-c1ccc([N+](=O)[O-])cc1 [Compound 3f, 2-Methoxy-4'-nitrobiphenyl]	32.55	less potency	
